This note sets out measurements from ChEMBL document CHEMBL1201862, “PubChem BioAssay data set” (2004).

Active and inactive are the calls of the source.

Assay [1] is described as follows: A High Throughput Confirmatory Assay used to Identify Novel Compounds that Inhibit Mycobacterium Tuberculosis in the absence of Glycerol. The assay is classed as functional.
Assay [2] is described as follows: microbe, parasite or virus in culture. As to conditions: Mycobacterium tuberculosis. In kind it is functional.
The subject of assay [3] is HeLa. The assay is described as follows: Cytotoxicity counterscreen assay for transcriptional activators of heat shock protein 70 (Hsp70). [Related pubchem assays: 1203, 1252 ]. Conditions: Homo sapiens. In kind it is functional.
Assay [4] deals with 5-hydroxytryptamine receptor 1E (Homo sapiens, UniProt P28566). The assay is described as follows: Counterscreen assay for S1P3 antagonists: Dose response cell-based high throughput screening assay to identify antagonists of the 5-Hydroxytryptamine Receptor Subtype 1E (5HT1E). [Related pubchem assays: 1429, 485 ]. In kind it is functional.
The target of assay [5] is Sphingosine 1-phosphate receptor 3 (Homo sapiens, UniProt Q99500). As to the kind of experiment: Dose response cell-based high throughput screening assay for antagonists of the Sphingosine 1-Phosphate Receptor 3 (S1P3). [Related pubchem assays: 1429, 485 ]. In kind it is functional.
Assay [6] deals with Potassium voltage-gated channel subfamily KQT member 2 (Rattus norvegicus, UniProt O88943, W236L). As to the kind of experiment: KCNQ2 channel potentiators, dose response, mechanism study for KCNQ2 potentiator project, cell-based, automated electrophysiology (AID 2603). In kind it is functional.
Assay [7] addresses T1, Replicative DNA helicase DnaB (Mycobacterium tuberculosis, UniProt P9WMR3).
T1 sequence (P9WMR3 whole entry): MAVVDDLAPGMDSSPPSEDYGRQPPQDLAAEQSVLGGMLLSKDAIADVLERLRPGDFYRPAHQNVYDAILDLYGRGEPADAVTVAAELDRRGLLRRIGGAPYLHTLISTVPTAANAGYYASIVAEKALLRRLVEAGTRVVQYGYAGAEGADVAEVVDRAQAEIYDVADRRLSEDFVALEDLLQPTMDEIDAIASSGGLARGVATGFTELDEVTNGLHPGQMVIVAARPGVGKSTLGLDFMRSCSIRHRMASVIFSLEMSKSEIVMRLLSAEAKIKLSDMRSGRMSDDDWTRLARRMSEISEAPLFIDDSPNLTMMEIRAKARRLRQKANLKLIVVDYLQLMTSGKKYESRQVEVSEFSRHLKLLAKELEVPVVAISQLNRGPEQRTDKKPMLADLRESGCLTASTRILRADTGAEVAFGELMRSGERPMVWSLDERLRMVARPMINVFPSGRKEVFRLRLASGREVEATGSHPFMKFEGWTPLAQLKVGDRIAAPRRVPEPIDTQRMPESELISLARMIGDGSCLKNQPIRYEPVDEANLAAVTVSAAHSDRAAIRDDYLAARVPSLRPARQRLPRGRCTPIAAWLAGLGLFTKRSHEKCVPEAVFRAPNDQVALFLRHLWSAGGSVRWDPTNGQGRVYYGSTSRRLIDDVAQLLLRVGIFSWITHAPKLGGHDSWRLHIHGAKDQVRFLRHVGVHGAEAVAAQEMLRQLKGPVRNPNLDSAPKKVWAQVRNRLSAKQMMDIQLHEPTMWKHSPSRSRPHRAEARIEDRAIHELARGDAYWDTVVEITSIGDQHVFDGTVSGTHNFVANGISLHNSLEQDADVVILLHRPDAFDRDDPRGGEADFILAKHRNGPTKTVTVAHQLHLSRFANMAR
The assay is described as follows: DnaB intein splicing inhibitors, dose response, biochemical, cell-free fluorescence (AID 449749). The assay is classed as functional.

Assay [8] addresses T2, Protein RecA (Mycobacterium tuberculosis, UniProt P9WHJ3).
T2 sequence (P9WHJ3 whole entry): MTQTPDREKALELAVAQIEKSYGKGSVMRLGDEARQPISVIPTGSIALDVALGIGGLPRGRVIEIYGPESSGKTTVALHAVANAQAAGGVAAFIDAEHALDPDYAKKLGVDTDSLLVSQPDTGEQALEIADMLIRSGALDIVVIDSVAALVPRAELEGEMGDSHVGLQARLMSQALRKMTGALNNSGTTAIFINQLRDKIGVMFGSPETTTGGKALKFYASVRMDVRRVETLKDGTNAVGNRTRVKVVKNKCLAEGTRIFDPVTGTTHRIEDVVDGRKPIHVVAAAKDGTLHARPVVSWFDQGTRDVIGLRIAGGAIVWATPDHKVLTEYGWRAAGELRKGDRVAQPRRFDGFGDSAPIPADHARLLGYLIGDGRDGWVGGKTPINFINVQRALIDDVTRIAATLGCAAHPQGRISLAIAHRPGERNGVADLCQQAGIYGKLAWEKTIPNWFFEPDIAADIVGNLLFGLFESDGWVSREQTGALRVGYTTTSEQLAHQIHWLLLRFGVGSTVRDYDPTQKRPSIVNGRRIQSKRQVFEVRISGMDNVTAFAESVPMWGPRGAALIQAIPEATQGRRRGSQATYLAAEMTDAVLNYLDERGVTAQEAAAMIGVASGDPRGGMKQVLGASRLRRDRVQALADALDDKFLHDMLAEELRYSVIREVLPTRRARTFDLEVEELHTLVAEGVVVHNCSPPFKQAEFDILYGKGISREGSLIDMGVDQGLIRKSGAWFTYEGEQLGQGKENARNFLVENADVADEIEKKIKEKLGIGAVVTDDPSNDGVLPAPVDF
As to the kind of experiment: Fluorescence Cell-Free Homogeneous Dose Retest to Identify Inhibitors of RecA-Intein Splicing Activity. [Related pubchem assays (depositor defined):AID2097, AID2223, AID489010, AID492950]. In kind it is functional.

The target in assay [9] is Genome polyprotein (dengue virus type 2, UniProt P29990). The assay is described as follows: Dengue-2 NS5 methyltransferase inhibitors, primary screen, biochemical, confirmation dose response (AID 588689). In kind it is functional.
Assay [10] in a line: Shn3 3'UTR reporter inhibitors, dose response, cell-based, Clone20 osteoblasts, firefly luciferase, cherry-picked (AID 624132).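 Note: firefly luciferase luminescence from reporter carrying the Shn3 3'UTR in osteoblasts.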 In kind it is functional.
The target of assay [11] is Hepatocyte nuclear factor 4-alpha (Homo sapiens, UniProt P41235). The assay is classed as functional, cell-based.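 Note: biochemical luminescence-based dose-response counterscreen measuring inhibition of HNF4 dimerization, run alongside a screen for blockers of ABHD5–perilipin-5 interaction; split luciferase complementation of HNF4 fusion proteins in cell lysate measuring dimerization.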
Assay [12] is described as follows: reduction of Shn3 3'UTR firefly luciferase signal, dose response, Schnurri-3 inhibitor project, cell-based, Clone20 osteoblasts, cherry-pick, set 2 (AID 720490).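 Note: actives lower the luminescence signal as inhibitors.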 In kind it is functional.

Sequence of Potassium voltage-gated channel subfamily KQT member 2 (O88943 whole entry W236L): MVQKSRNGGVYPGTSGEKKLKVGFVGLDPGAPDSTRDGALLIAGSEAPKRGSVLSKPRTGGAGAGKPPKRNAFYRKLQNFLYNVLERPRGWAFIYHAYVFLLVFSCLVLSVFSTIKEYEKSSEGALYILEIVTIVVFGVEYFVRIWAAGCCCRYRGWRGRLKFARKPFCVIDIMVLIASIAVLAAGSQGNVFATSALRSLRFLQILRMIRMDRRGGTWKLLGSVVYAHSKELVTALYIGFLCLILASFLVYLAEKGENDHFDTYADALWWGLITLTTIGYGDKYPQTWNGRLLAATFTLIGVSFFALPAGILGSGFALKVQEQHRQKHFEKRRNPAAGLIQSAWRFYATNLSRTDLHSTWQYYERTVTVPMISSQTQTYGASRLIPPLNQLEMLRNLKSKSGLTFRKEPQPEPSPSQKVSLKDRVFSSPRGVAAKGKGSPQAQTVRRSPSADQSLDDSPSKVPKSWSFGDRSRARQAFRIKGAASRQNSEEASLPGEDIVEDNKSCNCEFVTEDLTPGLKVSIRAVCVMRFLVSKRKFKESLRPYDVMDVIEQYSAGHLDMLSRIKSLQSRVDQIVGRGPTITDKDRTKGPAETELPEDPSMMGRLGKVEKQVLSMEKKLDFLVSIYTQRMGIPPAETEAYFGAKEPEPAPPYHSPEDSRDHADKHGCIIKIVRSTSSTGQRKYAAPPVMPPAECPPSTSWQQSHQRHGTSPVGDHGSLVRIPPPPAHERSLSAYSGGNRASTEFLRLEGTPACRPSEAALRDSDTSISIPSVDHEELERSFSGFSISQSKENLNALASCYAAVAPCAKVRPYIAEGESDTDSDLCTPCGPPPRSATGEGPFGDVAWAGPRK
Sequence of Hepatocyte nuclear factor 4-alpha (P41235 whole entry, the tested form may be a part): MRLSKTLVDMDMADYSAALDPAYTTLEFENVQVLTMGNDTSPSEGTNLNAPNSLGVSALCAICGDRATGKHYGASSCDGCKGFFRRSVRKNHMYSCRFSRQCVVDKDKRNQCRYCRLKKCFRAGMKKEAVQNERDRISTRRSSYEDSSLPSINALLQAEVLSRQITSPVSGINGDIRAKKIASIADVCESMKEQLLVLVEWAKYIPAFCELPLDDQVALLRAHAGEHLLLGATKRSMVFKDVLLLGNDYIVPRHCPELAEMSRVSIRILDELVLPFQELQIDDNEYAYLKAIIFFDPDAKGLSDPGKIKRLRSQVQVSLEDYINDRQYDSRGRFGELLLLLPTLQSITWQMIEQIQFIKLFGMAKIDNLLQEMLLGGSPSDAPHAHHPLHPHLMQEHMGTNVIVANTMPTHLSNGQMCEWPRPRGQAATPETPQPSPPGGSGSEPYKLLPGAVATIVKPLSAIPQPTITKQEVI
Sequence of 5-hydroxytryptamine receptor 1E (P28566 whole entry): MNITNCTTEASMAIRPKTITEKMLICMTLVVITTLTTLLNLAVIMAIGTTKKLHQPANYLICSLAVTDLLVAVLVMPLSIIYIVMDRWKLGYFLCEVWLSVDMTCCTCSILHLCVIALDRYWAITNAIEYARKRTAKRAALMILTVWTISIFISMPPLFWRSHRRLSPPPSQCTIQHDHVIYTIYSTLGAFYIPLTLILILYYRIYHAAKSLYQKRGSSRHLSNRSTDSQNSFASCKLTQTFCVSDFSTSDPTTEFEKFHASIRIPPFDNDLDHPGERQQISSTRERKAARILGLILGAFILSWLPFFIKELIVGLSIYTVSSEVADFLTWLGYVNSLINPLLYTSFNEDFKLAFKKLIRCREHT
Sequence of Sphingosine 1-phosphate receptor 3 (Q99500 whole entry): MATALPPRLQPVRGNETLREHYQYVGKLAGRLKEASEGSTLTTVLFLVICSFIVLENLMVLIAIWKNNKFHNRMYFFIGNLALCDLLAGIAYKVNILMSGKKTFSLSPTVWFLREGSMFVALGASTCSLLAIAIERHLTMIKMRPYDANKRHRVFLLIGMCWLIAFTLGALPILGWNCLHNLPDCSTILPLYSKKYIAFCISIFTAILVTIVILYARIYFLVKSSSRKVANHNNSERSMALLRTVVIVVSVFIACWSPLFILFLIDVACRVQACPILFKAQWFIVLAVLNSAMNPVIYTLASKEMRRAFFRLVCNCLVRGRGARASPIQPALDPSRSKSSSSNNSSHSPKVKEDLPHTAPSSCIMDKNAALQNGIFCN
Sequence of Genome polyprotein (P29990 2492-3391 limits assumed): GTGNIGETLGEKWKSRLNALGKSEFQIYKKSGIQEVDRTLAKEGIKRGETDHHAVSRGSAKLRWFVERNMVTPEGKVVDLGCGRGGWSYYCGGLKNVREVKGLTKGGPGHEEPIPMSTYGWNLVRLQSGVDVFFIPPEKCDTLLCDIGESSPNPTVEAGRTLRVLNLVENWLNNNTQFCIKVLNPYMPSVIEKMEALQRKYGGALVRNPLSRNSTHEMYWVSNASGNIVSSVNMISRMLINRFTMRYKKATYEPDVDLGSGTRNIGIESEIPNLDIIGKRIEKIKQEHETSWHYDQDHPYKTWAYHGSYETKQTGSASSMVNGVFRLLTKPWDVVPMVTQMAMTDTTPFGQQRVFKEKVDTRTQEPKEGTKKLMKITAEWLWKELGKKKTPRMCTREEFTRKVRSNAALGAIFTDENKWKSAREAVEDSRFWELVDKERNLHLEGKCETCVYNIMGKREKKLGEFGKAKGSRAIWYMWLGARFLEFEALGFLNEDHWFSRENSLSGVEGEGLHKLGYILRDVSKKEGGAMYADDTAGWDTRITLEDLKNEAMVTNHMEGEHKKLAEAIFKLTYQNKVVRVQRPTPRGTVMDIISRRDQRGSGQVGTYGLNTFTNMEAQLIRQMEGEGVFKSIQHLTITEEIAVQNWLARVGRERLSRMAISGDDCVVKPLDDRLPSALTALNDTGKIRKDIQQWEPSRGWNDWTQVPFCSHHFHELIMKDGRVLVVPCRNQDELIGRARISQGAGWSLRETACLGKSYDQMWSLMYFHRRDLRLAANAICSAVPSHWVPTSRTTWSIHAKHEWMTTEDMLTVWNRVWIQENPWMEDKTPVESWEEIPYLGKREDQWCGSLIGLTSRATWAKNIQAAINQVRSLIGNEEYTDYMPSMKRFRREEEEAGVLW

On to `CC(C)NC(=S)N/N=C/c1c[nH]c2ccccc12`, for which, in assay [1], the IC50 was > 100 µM (active). The CC50 in assay [2] is > 40 µM (active).
`CC(CC1CC(C)(C)OC1=O)C(=O)Nc1ccc([N+](=O)[O-])cc1` (configuration not stated): in [3], the CC50 is > 99 µM (not active).
Consider `Cc1ccc(NC(=O)C(c2ccccc2)C2CCCC2)cc1` (configuration not stated), for which the IC50 in [4] is 7.06 µM (active); in assay [5] it was 2.43 µM (active).
For the compound `CCSc1nnc(NC(=O)c2nc(S(=O)(=O)Cc3ccc(F)cc3)ncc2Cl)s1`, the EC50 in assay [6] is 38.9 µM (active); in [8] it was 1.08 µM (inconclusive). Also, the AC50 was 0.419 µM (inconclusive) in assay [7], 4.96 µM (active) in assay [10] and 1.68 µM (active) in [12]. Moreover, the IC50 was 41.5 µM (active) in assay [9] and 5.51 µM (active) in assay [11].
